The text below walks through data of US20250170100A1, “MONOACYLGLYCEROL LIPASE INHIBITORS AND USE THEREOF FOR THE TREATMENT OF ANXIETY AND RELATED CONDITIONS” (Psy Therapeutics, Inc., priority 2021, published 2025).

Where only a bound is given, the exact number is not on record here.

T1 sequence (Q99685 2-303): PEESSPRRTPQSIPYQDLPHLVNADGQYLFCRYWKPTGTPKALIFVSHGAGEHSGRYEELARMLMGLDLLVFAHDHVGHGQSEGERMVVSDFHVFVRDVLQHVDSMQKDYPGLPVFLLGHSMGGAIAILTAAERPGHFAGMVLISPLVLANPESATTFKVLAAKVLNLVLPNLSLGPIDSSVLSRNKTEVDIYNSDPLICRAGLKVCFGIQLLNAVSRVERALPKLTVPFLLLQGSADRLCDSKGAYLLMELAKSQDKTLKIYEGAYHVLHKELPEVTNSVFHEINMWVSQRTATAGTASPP

One assay concerns the target T1, human MAGL (Homo sapiens (Human), UniProt Q99685). The experiment in a line: MAGL inhibition potency assay with 4NPA substrate (methods of Table C). The assay is classed as biochemical. The conditions noted are these: Method 1: Reaction Biology MAGL enzyme, 6 nM; read-out: MAGL Potency (Detection Method). From the text:
Cayman's Monoacylglycerol Lipase Inhibitor Screening Assay provides a method for screening human MAGL inhibitors. MAGL hydrolyzes 4-nitrophenylacetate resulting in a yellow product, 4-nitrophenol, with an absorbance of 405-412 nm. The monoacylglycerol lipase inhibitor screening assay kit from Cayman Chemical was used to measure the MAGL potency for the compounds in Table 3 and Table 4. Cayman's Monoacylglycerol Lipase Inhibitor Screening Assay provides a method for screening human MAGL inhibitors. MAGL hydrolyzes 4-nitrophenylacetate resulting in a yellow product, 4-nitrophenol, with an absorbance of 405-412 nm. MAGL Inhibition was measured by the following assay. Monoacylglycerol Lipase (MAGL) inhibition was measured using recombinant MAGL enzyme (aa 2-303 RBC, internal preparation) and the substrate 4-Nitrophenyl acetate (4NPA) (Sigma-Aldrich, N8130). Hydrolysis of the substrate in the presence of the enzyme was measured by absorbance at 405 nm. 10 μL of assay buffer (10 mM Tris pH 7.5, 1 mM EDTA, 0.9% DMSO) was added to a black 384-well non-binding plate with clear bottom (Greiner, 781906) for each reaction. […] DMSO control wells were included for reference. A 10.8 nM (1.8×) MAGL mix in assay buffer was prepared, with […] added to each reaction well, for a final assay concentration of 6 nM. No enzyme wells received 25 μL of buffer. Plate was incubated at room temperature for 30 minutes. 35 mM solution of 4NPA in methanol was prepared daily. A 4.5×4NPA substrate solution was prepared in assay buffer and 10 μL was added to each reaction well, for a final assay concentration of 0.25 mM. Plate was spun for 1 minute at 1000 rpm before measuring absorbance using a CLARIOstar plate reader (BMG Labtech). A kinetic reading at 405 nm was done every minute for 30 minutes. Data was analyzed using the linear slope of the reaction progress curve and the average of the no-enzyme wells (background) was subtracted from the data. The background-subtracted slope data was converted to % activity using the average of wells with enzyme and DMSO vehicle. IC50s were calculated using GraphPad software (Sigmoidal dose response, variable slope equation). […] Table 5 provides potency measurements of MAGL inhibition measured using the Potency Assay of Example 18 above, with the following modifications described in Table C. [table]
For the compound `Cc1cc(C2CC3(C2)CN(C(=O)c2cc(O)c(F)cc2F)C3)n(-c2ccccc2C)n1` [Compound 126, (2,4-difluoro-5-hydroxyphenyl) (6-(3-methyl-1-(o-tolyl)-1H-pyrazol-5-yl)-2-azaspiro[3.3]heptan-2-yl) methanone], the IC50 was less than 0.05 µM. `Cc1cc(C2CC3(C2)CN(C(=O)c2cc(O)ccc2C#N)C3)n(-c2ccccc2C)n1` [Compound 128, 4-hydroxy-2-({6-[3-methyl-1-(o-tolyl)-5-pyrazolyl]-2-aza-2-spiro[3.3]heptyl}carbonyl)benzonitrile]: the IC50 was less than 0.05 µM.

The assay is the same for the next values; noted with them: Method 6: Reaction Biology MAGL enzyme, 6 nM; read-out: Potency (MAGL inhibition).
For `Cc1cnn(C2CC3(C2)CN(C(=O)c2cc(O)ccc2F)C3)c1-c1ccccc1Cl` [Compound 404], the IC50 was greater than 10 µM. For the compound `Cc1ccccc1-c1c(C)cnn1C1CC2(C1)CN(C(=O)c1cc(O)ccc1F)C2` [Compound 405], the IC50 was greater than 10 µM.

As to `Cc1cc(-c2ccccc2C)n(C2CC3(C2)CN(C(=O)c2cc(O)ccc2F)C3)n1` [Compound 406], the IC50 was greater than 10 µM. In the case of `Cc1cn(C2CC3(C2)CN(C(=O)c2cc(O)ccc2F)C3)nc1-c1ccccc1Cl` [Compound 416], the IC50 is greater than 10 µM.

As for `O=C(c1ccc(F)cc1OC1CC1)N1CC2(CC(n3nc(C(F)(F)F)cc3-c3ccccc3C(F)(F)F)C2)C1` [Compound 424, (2-cyclopropoxy-4-fluorophenyl) (6-(3-(trifluoromethyl)-5-(2-(trifluoromethyl)phenyl)-1H-pyrazol-1-yl)-2-azaspiro[3.3]heptan-2-yl) methanone], the IC50 is greater than 10 µM. For the compound `Cc1ccccc1-c1ccn(C2CC3(C2)CN(C(=O)c2cc(O)ccc2F)C3)n1` [Compound 441], the IC50 is greater than 10 µM. Turning to `Cc1ccccc1-c1cc(C)n(C2CC3(C2)CN(C(=O)c2cc(O)ccc2F)C3)n1` [Compound 442], the IC50 is greater than 10 µM. Consider `O=C(c1cc(O)ccc1F)N1CC2(CC(n3cc(C4CC4)c(-c4ccccc4Cl)n3)C2)C1` [Compound 445], for which the IC50 was greater than 10 µM.

The same assay, now with this note: Method 14: Reaction Biology MAGL enzyme, 6 nM; read-out: MAGL Potency (Detection Method).
Regarding `Cc1cc(C2CC3(C2)CN(C(=O)c2cc(O)ccc2F)C3)n(-c2cc(F)ccc2C)n1` [Compound 365, (2-fluoro-5-hydroxyphenyl) {6-[1-(5-fluoro-2-tolyl)-3-methyl-5-pyrazolyl]-2-aza-2-spiro[3.3]heptyl}methanone], the IC50 is less than 0.05 µM. Still for that read-out and setting: the value for `Cc1cc(C2CC3(C2)CN(C(=O)c2cc(O)ccc2F)C3)n(-c2ccccc2C(F)(F)F)n1` [Compound 366, (2-fluoro-5-hydroxyphenyl) (6-{3-methyl-1-[o-(trifluoromethyl)phenyl]-5-pyrazolyl}-2-aza-2-spiro[3.3]heptyl) methanone] was less than 0.05 µM; that for `Cc1ccccc1-n1nccc1C1CC2(C1)CN(C(=O)c1cc(O)ccc1F)C2` [Compound 367, (2-fluoro-5-hydroxyphenyl) (6-(1-(o-tolyl)-1H-pyrazol-5-yl)-2-azaspiro [3.3]heptan-2-yl) methanone] was 0.05 to 0.15 µM.

The same assay, now with this note: Method 14: Reaction Biology MAGL enzyme, 6 nM; read-out: Potency (MAGL inhibition).
As to `Cc1cc(C2CC3(C2)CN(C(=O)c2cc4c(cc2F)CCO4)C3)n(-c2ccccc2C)n1` [Compound 368], the IC50 is greater than 10 µM.

On to `O=C(c1cc(O)ccc1F)N1CC2(CC(C(=O)N3CCOCC3)C2)C1` [Compound 384], for which the IC50 was greater than 10 µM.

In the case of `O=C(c1cc(O)ccc1F)N1CC2(CC(C(=O)N3CCCC3)C2)C1` [Compound 388], the IC50 is greater than 10 µM. In the case of `O=C(c1cc(O)ccc1F)N1CC2(CC(C(=O)N3CCC4(COC4)C3)C2)C1` [Compound 391], the IC50 was greater than 10 µM. Regarding `O=C(NCC1COC1)C1CC2(C1)CN(C(=O)c1cc(O)ccc1F)C2` [Compound 395], the IC50 was greater than 10 µM. With `O=C(c1cc(O)ccc1F)N1CC2(CC(C(=O)N3CCC4(CCCO4)C3)C2)C1` (stereo not drawn) [Compound 400], the IC50 was greater than 10 µM. As to `Cc1cc(C2CC3(C2)CN(C(=O)c2ccc4c(c2)OCC4)C3)n(-c2ccccc2C)n1` [Compound 402], the IC50 was greater than 10 µM.

For `Cc1cc(C2CC3(C2)CN(C(=O)c2cccc4c2CCO4)C3)n(-c2ccccc2C)n1` [Compound 403], the IC50 is greater than 10 µM.

The assay is the same for the next values; noted with them: read-out: Potency (MAGL inhibition).
With `Cc1cc(C2CC3(C2)CN(Cc2cc(O)ccc2F)C3)n(-c2ccccc2C)n1` [Compound 150, 4-fluoro-3-((6-(3-methyl-1-(o-tolyl)-1H-pyrazol-5-yl)-2-azaspiro[3.3]heptan-2-yl)methyl) phenol], the IC50 is greater than 10 µM.

The target in the next assay is T1, human MAGL. The assay is described as above. The assay is classed as biochemical. Conditions: Method 2: Cayman Chemical MAGL enzyme, 10 nM; read-out: MAGL Potency (Detection Method).
For `Cc1cc(C2CC3(C2)CN(C(=O)c2cc(O)c(F)cc2F)C3)n(-c2ccccc2C)n1` [Compound 126, (2,4-difluoro-5-hydroxyphenyl) (6-(3-methyl-1-(o-tolyl)-1H-pyrazol-5-yl)-2-azaspiro[3.3]heptan-2-yl) methanone], the IC50 is less than 0.05 µM. Same read-out and setting: the value for `Cc1cc(C2CC3(C2)CN(C(=O)c2cc(O)ccc2C#N)C3)n(-c2ccccc2C)n1` [Compound 128, 4-hydroxy-2-({6-[3-methyl-1-(o-tolyl)-5-pyrazolyl]-2-aza-2-spiro[3.3]heptyl}carbonyl)benzonitrile] was less than 0.05 µM.

Regarding `Cc1cc(C2CC3(C2)CN(C(=O)c2ccc(F)cc2OCC(F)(F)F)C3)n(-c2ccccc2C)n1` [Compound 178, [4-fluoro-2-(2,2,2-trifluoroethoxy)phenyl]{6-[3-methyl-1-(o-tolyl)-5-pyrazolyl]-2-aza-2-spiro[3.3]heptyl}methanone], the IC50 was less than 0.05 µM.

Staying with this assay, now noted: Method 2: Cayman Chemical MAGL enzyme, 10 nM; read-out: Potency (MAGL inhibition).
For the compound `Cc1cc(C2CC3(C2)CN(C(=N)c2cc(O)ccc2F)C3)n(-c2ccccc2C)n1` [Compound 144], the IC50 was greater than 10 µM.

As to `COc1cc(F)ccc1C(=O)N1CC2(CC(c3cc(C)nn3-c3ccccc3C)C2)C1` [Compound 149], the IC50 was greater than 10 µM. Consider `Cc1cc(C2CC3(C2)CN(C2CCOc4ccccc42)C3)n(-c2ccccc2C)n1` (stereo not drawn) [Compound 152], for which the IC50 is greater than 10 µM. In the case of `Cc1cc(C2CC3(C2)CN([C@@H]2CCOc4ccccc42)C3)n(-c2ccccc2C)n1` [Compound 153], the IC50 was greater than 10 µM. As for `Cc1cc(C2CC3(C2)CN([C@H]2COc4ccccc42)C3)n(-c2ccccc2C)n1` [Compound 154], the IC50 was greater than 10 µM.

For `Cc1cc(C2CC3(C2)CN([C@@H]2COc4ccccc42)C3)n(-c2ccccc2C)n1` [Compound 155], the IC50 is greater than 10 µM. `Cc1cc(C2CC3(C2)CN(C(=O)c2ccoc2)C3)n(-c2ccccc2C)n1` [Compound 179]: the IC50 is greater than 10 µM.

Consider `Cc1cc(C2CC3(C2)CN(C(=O)c2cccn2C)C3)n(-c2ccccc2C)n1` [Compound 181], for which the IC50 was greater than 10 µM. Regarding `Cc1cc(C2CC3(C2)CN(C(=O)c2ccn(C)c2)C3)n(-c2ccccc2C)n1` [Compound 182], the IC50 was greater than 10 µM. For the compound `Cc1cc(C2CC3(C2)CN(C(=O)c2ccc[nH]2)C3)n(-c2ccccc2C)n1` [Compound 183], the IC50 was greater than 10 µM. Turning to `Cc1cc(C2CC3(C2)CN(C(=O)c2cc[nH]c2)C3)n(-c2ccccc2C)n1` [Compound 184], the IC50 is greater than 10 µM. With `CCOc1cc(F)ccc1C(=O)N1CC2(CC(C(=O)Nc3ccccc3C)C2)C1` [Compound 188], the IC50 is greater than 10 µM.

The assay is the same for the next values; noted with them: Method 3: Reaction Biology MAGL enzyme, 10 nM; read-out: MAGL Potency (Detection Method).
As to `Cc1cc(C2CC3(C2)CN(C(=O)c2cc(O)c(F)cc2F)C3)n(-c2ccccc2C)n1` [Compound 126, (2,4-difluoro-5-hydroxyphenyl) (6-(3-methyl-1-(o-tolyl)-1H-pyrazol-5-yl)-2-azaspiro[3.3]heptan-2-yl) methanone], the IC50 is less than 0.05 µM. The same measure, in the same setting: as for `Cc1cc(C2CC3(C2)CN(C(=O)c2ccc(F)cc2OCC(F)(F)F)C3)n(-c2ccccc2C)n1` [Compound 178, [4-fluoro-2-(2,2,2-trifluoroethoxy)phenyl]{6-[3-methyl-1-(o-tolyl)-5-pyrazolyl]-2-aza-2-spiro[3.3]heptyl}methanone], the figure is less than 0.05 µM.

The assay is the same for the next values; noted with them: Method 4: Cayman Chemical MAGL enzyme, 15 nM; read-out: Potency (MAGL inhibition).
Consider `CCOc1cc(F)ccc1C(=O)N1CC2(CC(C(=O)N(C)c3cccnc3C)C2)C1` [Compound 198], for which the IC50 was greater than 10 µM.

The assay is the same for the next values; noted with them: Method 5: Cayman Chemical MAGL enzyme, 25 nM; read-out: MAGL Potency (Detection Method).
In the case of `Cc1cc(C2CC3(C2)CN(C(=O)c2ccc(F)cc2OCC(F)(F)F)C3)n(-c2ccccc2C)n1` [Compound 178, [4-fluoro-2-(2,2,2-trifluoroethoxy)phenyl]{6-[3-methyl-1-(o-tolyl)-5-pyrazolyl]-2-aza-2-spiro[3.3]heptyl}methanone], the IC50 is less than 0.05 µM.

The same assay, now with this note: Method 11: Reaction Biology MAGL enzyme, Conc 20 (text: 25 nM); read-out: Potency (MAGL inhibition).
As to `Cc1cc(-c2cc(F)ccc2C)n(C2CC3(C2)CN(C(=O)c2ccc(F)cc2OC(F)(F)F)C3)n1` [Compound 427], the IC50 is greater than 10 µM.

Still in this assay, the particulars now being: Method 12: Reaction Biology MAGL enzyme, 15 nM; read-out: Potency (MAGL inhibition).
Regarding `Cc1cnn(C2CC3(C2)CN(C(=O)c2cc(O)ccc2F)C3)c1-c1ccccc1F` [Compound 494], the IC50 is greater than 10 µM. For the compound `Cc1cn(C2CC3(C2)CN(C(=O)c2cc(O)ccc2C(F)(F)F)C3)nc1-c1ccccc1F` [Compound 495], the IC50 was greater than 10 µM. With `O=C(c1c(F)cccc1OC1CC1)N1CC2(CC(n3ncc(C(F)(F)F)c3-c3ccccc3F)C2)C1` [Compound 521], the IC50 was greater than 10 µM.
